Test results reported in patent US7351692B2, “Method and composition for potentiating the antipyretic action of a nonopioid analgesic” (The Board of Trustees of the University of Illinois, priority 2002, dated 2008).
Non-standard residues stand in square brackets, D forms with d. Residues, ends and D or L forms follow the SMILES beside them.

What was measured:
[1] = molecular target: COX-1 (Homo sapiens, UniProt P23219); conditions: in vitro; cited from earlier work
[2] = molecular target: T1, COX-2 (Homo sapiens, UniProt P35354); conditions: in vitro; cited from earlier work
T1 sequence (P35354 18-604): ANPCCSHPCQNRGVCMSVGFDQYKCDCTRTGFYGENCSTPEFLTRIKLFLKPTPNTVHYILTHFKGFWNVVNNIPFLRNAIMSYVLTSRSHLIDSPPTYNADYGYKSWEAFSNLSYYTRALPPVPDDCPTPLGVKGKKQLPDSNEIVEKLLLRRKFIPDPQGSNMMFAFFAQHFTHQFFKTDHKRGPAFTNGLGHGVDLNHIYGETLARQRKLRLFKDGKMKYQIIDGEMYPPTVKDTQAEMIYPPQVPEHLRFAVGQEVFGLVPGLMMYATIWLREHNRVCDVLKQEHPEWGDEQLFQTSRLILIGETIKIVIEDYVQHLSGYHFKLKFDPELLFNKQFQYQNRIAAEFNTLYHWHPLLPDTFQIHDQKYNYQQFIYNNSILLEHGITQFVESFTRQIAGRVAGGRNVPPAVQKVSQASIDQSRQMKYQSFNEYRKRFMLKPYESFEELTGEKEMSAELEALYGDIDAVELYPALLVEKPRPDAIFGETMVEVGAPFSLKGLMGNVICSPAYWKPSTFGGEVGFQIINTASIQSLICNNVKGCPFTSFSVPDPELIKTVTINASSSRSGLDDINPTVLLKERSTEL

[3] = acetaminophen 3900 mg/d; afebrile patients with acute stroke; cited from earlier work
[4] = Measurement of body temperature (colonic temperature, telethermometer); type: in vivo; conditions: for change in body temperature, drug alone: acetaminophen 300 mg/kg s.c. or BQ123 3 μg i.c.v., over 360 minutes
Procedure: (§1) Male Swiss-Webster mice weighing 25 to 30 grams (Harlan, Indianapolis, Ind.) were housed four per cage in a room having a controlled ambient temperature (23±1° C.), humidity (50±10%), and twelve-hour light/dark cycle (6:00 a.m. to 6:00 p.m.). Food and water were available ad libitum. The experiments were-performed after the mice were acclimated to this environment for at least four days.
(§2) For i.c.v. administration of the endothelin antagonist BQ123, a mouse was grasped firmly by the loose skin behind the head and the skin was pulled taut. The site of injection was 2 mm from either side of the midline drawn through the anterior base of the ears. A 27 gauge sterile hypodermic needle attached to a 10 μL sterile Hamilton syringe was inserted perpendicularly through the skull into the brain, and vehicle (sterile saline) or BQ123 was delivered to the ventricle of the mouse brain (see T. J. Haley et al., Brit. J. Pharmacol., 12(12), (1957)). BQ123 (3 μg) or vehicle was administered i.c.v. and volume of drug injection was 5 μL. Vehicle or BQ123 pretreatment was performed 30 minutes prior to administration of acetaminophen (300 mg/kg s.c.).
(§3) The mice were divided into the following four groups (N=5 in each group): group I (P+V) received vehicle (V) (saline 5 μl, i.c.v.) and placebo (P) (vehicle 100 μl/kg, s.c.); group 2 (P+BQ) received BQ123 (BQ) (3 μg. i.c.v. in a volume of 5 μl of saline) and placebo (P) (vehicle 100 μl/kg, s.c.); group 3 (A+V) received vehicle (V) (saline 5 μl, i.c.v.) and acetaminophen (A) (300 mg/kg, s.c. in a volume of 100 μl/kg); and group 4 (A+BQ) received BQ123 (BQ) (3 μg, i.c.v. in a volume of 5 μl) and acetaminophen (A) (300 mg/kg, s.c. in a volume of 100 μl/kg). Vehicle or BQ123 pretreatment was performed 30 minutes prior to administration of acetaminophen (FIG. 1).
The change in body temperature in response to acetaminophen (300 mg/kg) was determined (Bhargava, 1997). The colonic temperature of each mouse was recorded before and at various times after the injection of acetaminophen over a period of 360 minutes using a telethermometer. Body temperature data was expressed as mean±SEM.

[5] = 4000 mg acetaminophen daily (n=20); placebo group 36.4%; p=0.014; cited from earlier work
[6] = Measurement of tail-flick latency (thermal stimulation); type: in vivo; conditions: mice; for effect on tail flick latency (analgesia), drug alone: acetaminophen 300 mg/kg s.c. or BQ123 3 μg i.c.v.
Procedure: as §1, §2, §3
An analgesic response was determined by the tail flick method (C. Advocat et al., Brain Ref., 55(2), pp. 251-258 (1991); H. N. Bhargava, General Pharmacology, 28(1), pp. 61-64 (1997)). The tail flick latencies to thermal stimulation (focused light) were determined before and 30, 60, 90, 120, 180, 210, 240, 270, 300, and 360 minutes after injection of acetaminophen. The basal tail flick latency was about 2 seconds. A thermal stimulation cutoff time of 10 seconds was used to prevent damage to the tail of the animal. The analgesic response in each mouse was expressed as mean±SEM.

[7] = tested on: prostaglandin synthesis; conditions: in vivo; cited from earlier work
[8] = daily dose of 6000 mg acetaminophen, suppositories, five days; cited from earlier work
[9] = Body weight of mice before drug and at end of experiment; type: in vivo; conditions: before drug vs 7 hours after acetaminophen, acetaminophen 300 mg/kg s.c., BQ123 3 μg i.c.v.
Procedure: as §1
as §2, with “Vehicle or BQ123 pretreatment was performed 30 minutes prior to administration of acetaminophen (300 mg/kg s.c.).” left out
The body weight of all mice was measured, and no change in body weight between various groups of mice was observed (FIG. 2). Body weight was measured before administration of any drug and at the end of the experiment (i.e., 7 hours after the administration of acetaminophen).

[10] = molecular target: T2, ETA receptor (Rattus norvegicus, UniProt P26684); conditions: cited from earlier work
T2 construct: host or cells: whole animal, central (intracerebroventricular) administration
T2 sequence (P26684 21-426): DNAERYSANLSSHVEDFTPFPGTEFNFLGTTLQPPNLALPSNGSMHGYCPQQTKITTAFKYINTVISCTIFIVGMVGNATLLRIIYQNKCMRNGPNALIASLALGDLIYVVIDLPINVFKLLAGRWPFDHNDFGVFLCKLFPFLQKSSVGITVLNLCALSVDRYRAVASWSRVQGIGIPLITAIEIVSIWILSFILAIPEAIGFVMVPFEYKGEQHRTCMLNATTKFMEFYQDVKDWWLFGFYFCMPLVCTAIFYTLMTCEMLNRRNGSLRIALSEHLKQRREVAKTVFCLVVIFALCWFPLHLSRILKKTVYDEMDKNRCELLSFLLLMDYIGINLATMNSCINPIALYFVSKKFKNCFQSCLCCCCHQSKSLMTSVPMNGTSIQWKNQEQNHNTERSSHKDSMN

[11] = BQ123 3 μg i.c.v. 30 minutes prior to acetaminophen 300 mg/kg s.c.

COX-1, sequence (P23219 24-599): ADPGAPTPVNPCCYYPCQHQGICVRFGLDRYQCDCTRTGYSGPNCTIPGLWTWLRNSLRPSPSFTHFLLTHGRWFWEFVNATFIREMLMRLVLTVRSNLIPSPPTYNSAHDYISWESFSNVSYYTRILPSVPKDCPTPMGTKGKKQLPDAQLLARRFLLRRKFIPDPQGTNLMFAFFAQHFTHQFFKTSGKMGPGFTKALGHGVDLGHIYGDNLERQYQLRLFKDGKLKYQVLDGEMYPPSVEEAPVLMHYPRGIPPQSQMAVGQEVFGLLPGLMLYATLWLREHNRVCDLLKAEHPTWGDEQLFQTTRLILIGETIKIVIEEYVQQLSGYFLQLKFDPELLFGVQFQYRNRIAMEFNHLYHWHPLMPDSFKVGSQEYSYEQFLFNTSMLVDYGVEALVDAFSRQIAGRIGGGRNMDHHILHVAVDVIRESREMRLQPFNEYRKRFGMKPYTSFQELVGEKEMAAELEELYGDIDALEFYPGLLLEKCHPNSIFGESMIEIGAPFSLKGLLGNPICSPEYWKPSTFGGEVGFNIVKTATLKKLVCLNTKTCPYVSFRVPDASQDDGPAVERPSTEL

| SMILES | inhibition of COX-1 [1] | inhibition of COX-2 [2] | core body temperature (CBT) [3] | change in body temperature, drug alone ([4]; mice) | duration of hypothermia after acetaminophen ([4]; mice, acetaminophen 300 mg/kg s.c., vehicle pretreatment) | patients with fever of greater than 37.5° C. [5] [%] | effect on tail flick latency (analgesia), drug alone ([6]; control about 2 seconds) | tail flick latency reached ([6]; acetaminophen 300 mg/kg s.c., cutoff time 10 seconds, control about 2 seconds) | duration of significant increase in tail flick latencies ([6]; after acetaminophen 300 mg/kg s.c.) | reduction of prostaglandin synthesis [7] | body temperature shortly after ischemic stroke [8] | duration of hypothermic effect of acetaminophen in BQ123 pretreated mice [4, 11] | effect of BQ123 on hypothermic effect of acetaminophen ([4]; mice, BQ123 3 μg i.c.v. 30 minutes prior to acetaminophen 300 mg/kg s.c.) | effect of BQ123 on analgesic effect of acetaminophen [6, 11] | acute effect on body weight [9] | effect on BP and HR per se ([10]; administered in the lateral cerebral ventricle) | effect on clonidine induced hypotension and bradycardia ([10]; pretreatment) |
| --- | --- | --- | --- | --- | --- | --- | --- | --- | --- | --- | --- | --- | --- | --- | --- | --- | --- |
| CC(=O)Nc1ccc(O)cc1 [acetaminophen] | weakly | weakly | small reduction in CBT | produced a significant hypothermia | about three | 5.0 | produced significant analgesia | more than 10 seconds | three | markedly | small, but potentially beneficial, decrease in body temperature | – | – | – | – | – | – |
| CC(C)C[C@@H]1NC(=O)[C@@H](C(C)C)NC(=O)[C@@H]2CCCN2C(=O)[C@@H](CC(=O)O)NC(=O)[C@@H](Cc2c[nH]c3ccccc23)NC1=O [BQ123, cyclo (-D-Trp-D-Asp-Pro-D-Val-Leu-)] (cyclo(L[dW][dD]P[dV])) | – | – | – | did not produce any significant change in body temperature | – | – | did not produce any significant effect on tail flick latency | – | – | – | – | more than six | significantly potentiated | not affected | neither acetaminophen nor BQ123 produced any acute effect on body weight | – | – |
| Cc1noc(NS(=O)(=O)c2cccc3c(N(C)C)cccc23)c1C [BMS-182874] | – | – | – | – | – | – | – | – | – | – | – | – | – | – | – | did not affect BP and HR per se | significantly blocked |
